Laboratory results published in patent US11365192B2, “Pyridine compound substituted with azole” (TAISHO PHARMACEUTICAL CO., LTD., priority 2017, dated 2022).

Legend:
[1] = target: human CYP4F2 (Homo sapiens (Human), UniProt P78329); experiment: Inhibition test against 20-HETE producing enzyme CYP4F2 (luciferine derivative, luminescence); format: biochemical
Protocol: (§1) (1) Inhibition Test for Each Compound of the Present Invention Against 20-HETE Producing Enzymes (CYP4F2 and CYP4A11)
(§2) In the CYP4F2 inhibition test, the reaction solution containing each compound [final concentration of 50 mM, KPO4 (pH 7.4), 2.5 μM luciferine derivative, and 1 mM NADPH] was added to an Escherichia coli membrane fraction (100 μg/mL protein) in which human CYP4F2 had been expressed. In the CYP4A11 inhibition test, the reaction solution containing each compound [final concentration of 100 mM, Tris-HCl (pH 7.5), 60 μM luciferine derivative, 1.3 mM NADP^+, 3.3 mM Glucose 6-Phosphate, 3.3 mM MgCl2, and 0.4 U/mL Glucose 6-Phosphate dehydrogenase] was added to an Escherichia coli membrane fraction (100 μg/mL protein) in which human CYP4A11 had been expressed. Following this, the membrane fraction was left to stand at room temperature for 60 minutes to perform an enzymatic reaction. After the reaction, a luciferine detection reagent was added, and the luminescence value was measured using a plate reader. By using that value, the percent inhibition of 20-HETE producing enzyme (%) was calculated according to the equation described below, and the 50% inhibitory concentration (IC50 value) for each compound was calculated. Percent inhibition of 20-HETE producing enzyme (%)=[1−(A−B)/(C−B)]*100
(§3) A: Luminescence value with addition of compound
(§4) B: Luminescence value without addition of compound and enzyme

[2] = target: human CYP4A11 (Homo sapiens (Human), UniProt Q02928); experiment: Inhibition test against 20-HETE producing enzyme CYP4A11 (luciferine derivative, luminescence); format: biochemical
Chain of human CYP4A11 (Q02928 5-519): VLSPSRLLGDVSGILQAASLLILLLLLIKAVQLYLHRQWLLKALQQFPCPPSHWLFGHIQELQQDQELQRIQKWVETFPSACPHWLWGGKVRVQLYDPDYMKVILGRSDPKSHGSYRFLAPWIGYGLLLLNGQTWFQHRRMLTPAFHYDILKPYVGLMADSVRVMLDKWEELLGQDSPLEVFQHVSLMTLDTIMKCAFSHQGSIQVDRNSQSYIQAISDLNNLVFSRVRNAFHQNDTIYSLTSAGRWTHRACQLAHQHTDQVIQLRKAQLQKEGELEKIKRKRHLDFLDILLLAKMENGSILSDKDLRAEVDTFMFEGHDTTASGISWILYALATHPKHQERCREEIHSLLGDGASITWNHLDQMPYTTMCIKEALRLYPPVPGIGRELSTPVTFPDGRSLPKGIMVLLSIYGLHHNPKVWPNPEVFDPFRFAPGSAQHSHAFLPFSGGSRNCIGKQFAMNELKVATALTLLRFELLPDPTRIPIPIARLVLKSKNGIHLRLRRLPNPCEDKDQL
Protocol: as §1, §2, §3, §4

[3] = E. coli membrane fraction expressing human CYP4F2, 2.5 μM luciferine derivative, room temperature 60 minutes
[4] = E. coli membrane fraction expressing human CYP4A11, 60 μM luciferine derivative, room temperature 60 minutes
[5] = human CYP4F2, luciferine derivative, luminescence
[6] = human CYP4A11, luciferine derivative, luminescence

Chain of human CYP4F2 (P78329 5-520): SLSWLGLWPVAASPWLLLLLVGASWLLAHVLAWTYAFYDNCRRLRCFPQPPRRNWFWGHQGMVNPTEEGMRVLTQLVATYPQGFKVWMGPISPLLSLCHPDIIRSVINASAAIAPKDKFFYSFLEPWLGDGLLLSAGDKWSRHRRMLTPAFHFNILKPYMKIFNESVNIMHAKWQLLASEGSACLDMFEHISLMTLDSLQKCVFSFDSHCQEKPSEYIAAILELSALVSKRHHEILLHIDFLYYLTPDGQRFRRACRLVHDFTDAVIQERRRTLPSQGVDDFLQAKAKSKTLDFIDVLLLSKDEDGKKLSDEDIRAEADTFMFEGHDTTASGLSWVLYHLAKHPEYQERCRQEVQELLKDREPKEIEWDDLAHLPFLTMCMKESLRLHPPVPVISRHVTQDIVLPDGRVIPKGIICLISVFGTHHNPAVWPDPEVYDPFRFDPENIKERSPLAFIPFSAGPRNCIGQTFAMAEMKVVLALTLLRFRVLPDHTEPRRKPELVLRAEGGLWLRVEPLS

Compound	IC50 [1, 3] [nM]	IC50 [2, 4] [nM]	IC50 [1, 5] [nM]	IC50 [2, 6] [nM]
O=C(O)[C@H]1CC[C@H](c2cccc(COc3ccc(-c4ccn[nH]4)nc3)c2)CC1 [Example 8-2, trans-4-[3-[[6-(1H-Pyrazol-5-yl)-3-pyridinyl]oxymethyl]phenyl]-1-cyclohexanecarboxylic Acid]	6500	19		
O=C(O)CCCc1ccc(COc2ccc(-c3ccn[nH]3)nc2)cc1 [Example 30-2]	190	160		
CN(C(C)(C)C(=O)O)S(=O)(=O)c1cccc(COc2ccc(-c3ccn[nH]3)nc2)c1 [Example 75-4]			29000	43
O=C(O)C[C@@H]1CCN(C(=O)c2cccc(COc3ccc(-c4ccn[nH]4)nc3)c2)C1 [Example 45-40]			1400	410
O=C(CCc1cccc(COc2ccc(-c3ccn[nH]3)nc2)c1)NC1COC1 [Example 43-4]			45	150
CC(C)(Oc1cc(CCOc2ccc(-c3ccn[nH]3)nc2)ccn1)C(=O)O [Example 71-34]			36000	1100
CC(C)(C(=O)O)c1cccc(S(=O)(=O)CCCCOc2ccc(-c3ccn[nH]3)nc2)c1 [Example 8-5]	2300	560		
Oc1cccc(CCOc2ccc(-c3ccn[nH]3)nc2)c1 [Example 13-3]	19	300		
O=C(O)[C@H]1CC[C@@H](COc2ccc(-c3ccn[nH]3)nc2)CC1 [Example 1-50]	23000	170		
CN(CCC(C)(C)C(=O)O)C(=O)c1cccc(COc2ccc(-c3ccn[nH]3)nc2)c1 [Example 45-18]			270	440
O=C(O)[C@H]1CCc2ccc(COc3ccc(-c4ccn[nH]4)nc3)cc2C1 [Example 69-1-2]			200	25
O=C(NCC1(C(=O)O)CCOCC1)c1cccc(COc2ccc(-c3ccn[nH]3)nc2)c1 [Example 45-6]			4500	250
CC(=O)N1CCC(C(=O)O)(c2cccc(COc3ccc(-c4ccn[nH]4)nc3)c2)CC1 [Example 33-1, 1-Acetyl-4-[3-[[6-(1H-pyrazol-5-yl)-3-pyridinyl]oxymethyl]phenyl]-4-piperidinecarboxylic Acid]	7000	180		
CC(C)(CCN1CCc2ccc(COc3ccc(-c4ccn[nH]4)nc3)cc2C1=O)C(=O)O [Example 8-6]	53	2500		
CS(=O)(=O)N[C@H]1CC[C@@H](Oc2ccc(-c3ccn[nH]3)nc2)CC1 [Example 57-2]	7300	6700		
CC(C)(Oc1ccc(CCCOc2ccc(-c3ccn[nH]3)nc2)cn1)C(=O)O [Example 71-38]			1900	1400
O=C(O)c1cc(COc2ccc(-c3ccn[nH]3)nc2)ccc1F [Example 22-15]	14000	92		
CN(C(=O)c1cccc(COc2ccc(-c3ccn[nH]3)nc2)c1)S(C)(=O)=O [Example 44-2]			73	340
CC(C)(CNS(=O)(=O)c1cccc(COc2ccc(-c3ccn[nH]3)nc2)c1)C(=O)O [Example 75-3]			490	36
O=C(O)C1CC1c1ccc(CCOc2ccc(-c3ccn[nH]3)nc2)c(F)c1 (single isomer, unassigned) [Example 71-17]			520	250
O=C(O)c1ccc(CCOc2ccc(-c3ccn[nH]3)nc2)cc1 [Example 1-5]	3500	150		
O=C(O)Cn1cc(CCCCOc2ccc(-c3ccn[nH]3)nc2)nn1 [Example 35-2]	5700	360		
NC(=O)c1cc(COc2ccc(-c3[nH]ncc3C(F)F)nc2)ccn1 [Example 67-1, 4-[[6-[4-(Difluoromethyl)-1H-pyrazol-5-yl]-3-pyridinyl]oxymethyl]-2-pyridinecarboxamide]	2700	> 50000		
O=C(O)C1(CCCCCCCCOc2ccc(-c3ccn[nH]3)nc2)CCOC1 (stereo not drawn) [Example 72-4]			14	150
O=C(O)c1cccc(CCCCOc2ccc(-c3ccn[nH]3)nc2)c1 [Example 1-19]	220	9.5		
O=C(O)C1CC(c2ccc(CCOc3ccc(-c4ccn[nH]4)nc3)cc2)C1 (stereo not drawn) [Example 71-20]			190	500

Compound	IC50 [1, 3] [nM]	IC50 [2, 4] [nM]	IC50 [1, 5] [nM]	IC50 [2, 6] [nM]
O=C(O)c1ccc(F)c(CCCOc2ccc(-c3ccn[nH]3)nc2)c1 [Example 71-13]			770	51
O=C(N[C@H]1CC[C@H](C(=O)O)CC1)c1cccc(COc2ccc(-c3ccn[nH]3)nc2)c1 [Example 45-20]			2100	410
C[C@@H](NC(=O)c1cccc(COc2ccc(-c3ccn[nH]3)nc2)c1)C(=O)O [Example 45-10]			10000	180
O=C(O)[C@]12CC3C[C@H](C1)[C@H](COc1ccc(-c4ccn[nH]4)nc1)[C@@H](C3)C2 [Example 2-1, trans-4-[[6-(1H-Pyrazol-5-yl)-3-pyridinyl]oxymethyl]-1-adamantanecarboxylic Acid]	24000	23		
O=C(N[C@@H](Cc1ccccc1)C(=O)O)c1cccc(COc2ccc(-c3ccn[nH]3)nc2)c1 [Example 45-11]			1200	23
CS(=O)(=O)c1cc(COc2ccc(-c3ccn[nH]3)nc2)ccc1O [Example 20-1, 2-Methylsulfonyl-4-[[6-(1H-pyrazol-5-yl)-3-pyridinyl]oxymethyl]phenol]	1100	28000		
O=C(O)[C@H]1CCC[C@H](COc2ccc(-c3ccn[nH]3)nc2)C1 (racemic) [Example 9-1, trans-3-[[6-(1H-Pyrazol-5-yl)-3-pyridinyl]oxymethyl]-1-cyclohexanecarboxylic Acid (Racemate)]	1900	51		
NC(=O)c1cc(COc2ccc(-c3n[nH]cc3Cl)nc2)ccn1 [Example 53-2]	16	950		
O=C(CCc1cccc(COc2ccc(-c3ccn[nH]3)nc2)c1)N1CCOCC1 [Example 42-15]			140	400
Oc1cccc(COc2ccc(-c3ccn[nH]3)nc2)c1 [Example 13-1, 3-[[6-(1H-Pyrazol-5-yl)-3-pyridinyl]oxymethyl]phenol]	34	610		
CC(OCCCCCCCOc1ccc(-c2ccn[nH]2)nc1)C(=O)O (stereo not drawn) [Example 71-4]			200	270
O=C(O)c1ncc(CCCCOc2ccc(-c3ccn[nH]3)nc2)cn1 [Example 29-3]	84	380		
CC(C)(C(=O)O)C(=O)N1CCc2ccc(COc3ccc(-c4ccn[nH]4)nc3)cc2C1 [Example 17-1, 2,2-Dimethyl-3-oxo-3-[7-[[6-(1H-pyrazol-5-yl)-3-pyridinyl]oxymethyl]-3,4-dihydro-1H-isoquinolin-2-yl]propanoic Acid]	180	1400		
O=C(O)[C@H]1CC[C@@H](c2cccc(COc3ccc(-c4ccn[nH]4)nc3)c2)CC1 [Example 8-1, cis-4-[3-[[6-(1H-Pyrazol-5-yl)-3-pyridinyl]oxymethyl]phenyl]-1-cyclohexanecarboxylic Acid]	790	20		
O=C(O)C[C@@H](NC(=O)c1cccc(COc2ccc(-c3ccn[nH]3)nc2)c1)c1ccccc1 [Example 45-8]			1900	130
COC(=O)N1CCC(O)(c2cccc(COc3ccc(-c4ccn[nH]4)nc3)c2)CC1 [Example 51-1, Methyl 4-hydroxy-4-[3-[[6-(1-H-pyrazol-5-yl)-3-pyridinyl]oxymethyl]phenyl]-1-piperidinecarboxylate]	3	270		
O=C(O)C1CCc2c(COc3ccc(-c4ccn[nH]4)nc3)cccc2O1 (stereo not drawn) [Example 71-11]			29000	22
CC(O)(c1cccc(COc2ccc(-c3ccn[nH]3)nc2)c1)C(F)(F)F (stereo not drawn) [Example 27-2]	300	15		
O=C(O)C1(CCCCCCCCOc2ccc(-c3ccn[nH]3)nc2)CCCO1 (stereo not drawn) [Example 72-5]			43	260
CC(=O)N1CCC(O)(c2cccc(COc3ccc(-c4ccn[nH]4)nc3)c2)CC1 [Example 52-1, 1-[4-Hydroxy-4-[3-[[6-(1-H-pyrazol-5-yl)-3-pyridinyl]oxymethyl]phenyl]-1-piperidinyl]ethanone]	4.4	710		
CC(C)(CCc1cccc(COc2ccc(-c3ccn[nH]3)nc2)n1)C(=O)O [Example 1-39]	9800	420		
O=C(O)C1(Cc2cccc(CCOc3ccc(-c4ccn[nH]4)nc3)c2F)COC1 [Example 71-27]			15000	94
O=C(O)C[C@H](NC(=O)c1cccc(COc2ccc(-c3ccn[nH]3)nc2)c1)c1ccccc1 [Example 45-7]			2900	780
CS(=O)(=O)NC(=O)Cc1cccc(COc2ccc(-c3ccn[nH]3)nc2)c1 [Example 44-3]			11000	44
C[C@@H](CO)NC(=O)CCc1cccc(COc2ccc(-c3ccn[nH]3)nc2)c1 [Example 43-7]			63	320
